# Data reported in PubChem BioAssay AID2060883 (Molecular Pharmacology Branch, DTP, NCI, 2025).
# Values joined by “and” are separate entries in the source; they are usually repeats but may differ in a detail not shown here. Identical values can stand only once.
# Test system: 843782-103-R-J1-PDC complex spheroid viability
# Assay: Anticancer human tumor 843782-103-R-J1-PDC patient-derived lung adenocarcinoma cell line growth inhibition [RAS]
# Details: for viability, T/C: stronger effect = lower value
# In short: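 Agents were tested in combination matrices in half-log decrements from a top concentration at or near clinical Cmax (10 microM if undetermined). Targets were multi-cell spheroids of tumour lines plus HUVEC and MSC stromal cells.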
# 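Further: viability read after seven days of compound exposure.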
smiles,measurement,setting,value
C=CC(=O)Nc1cc(Nc2nccc(-c3cn(C)c4ccccc34)n2)c(OC)cc1N(C)CCN(C)C + C#Cc1c(F)ccc2cc(O)cc(-c3ncc4c(N5CC6CCC(C5)N6)nc(OCC56CCCN5CC(F)C6)nc4c3F)c12,IC50,"curve of first compound, second compound 0.0316 µM",> 1000 nM
same,IC50,"curve of first compound, second compound 0.1 µM",> 1000 nM
same,IC50,"curve of first compound, second compound 0.316 µM",> 1000 nM
same,IC50,"curve of first compound, second compound 1 µM",595 nM
same,IC50,"curve of first compound, second compound 3.16 µM",231 nM
same,IC50,"curve of first compound, second compound 10 µM",57.6 nM
same,"viability, T/C","second compound 0.0316 µM, first compound 0.00316 µM",108%
same,"viability, T/C","second compound 0.0316 µM, first compound 0.01 µM",98.2%
same,"viability, T/C","second compound 0.0316 µM, first compound 0.0316 µM",101%
same,"viability, T/C","second compound 0.0316 µM, first compound 0.1 µM",96.9%
same,"viability, T/C","second compound 0.0316 µM, first compound 0.316 µM",94.6%
same,"viability, T/C","second compound 0.0316 µM, first compound 1 µM",55.4%
same,"viability, T/C","second compound 0.1 µM, first compound 0.00316 µM",104%
same,"viability, T/C","second compound 0.1 µM, first compound 0.01 µM",94.7%
same,"viability, T/C","second compound 0.1 µM, first compound 0.0316 µM",102%
same,"viability, T/C","second compound 0.1 µM, first compound 0.1 µM",97%
same,"viability, T/C","second compound 0.1 µM, first compound 0.316 µM",88.2%
same,"viability, T/C","second compound 0.1 µM, first compound 1 µM",64.2%
same,"viability, T/C","second compound 0.316 µM, first compound 0.00316 µM",105%
same,"viability, T/C","second compound 0.316 µM, first compound 0.01 µM",99.4%
same,"viability, T/C","second compound 0.316 µM, first compound 0.0316 µM",101%
same,"viability, T/C","second compound 0.316 µM, first compound 0.1 µM",93.9%
same,"viability, T/C","second compound 0.316 µM, first compound 0.316 µM",80%
same,"viability, T/C","second compound 0.316 µM, first compound 1 µM",54.4%
same,"viability, T/C","second compound 1 µM, first compound 0.00316 µM",97%
same,"viability, T/C","second compound 1 µM, first compound 0.01 µM",90.7%
same,"viability, T/C","second compound 1 µM, first compound 0.0316 µM",99.9%
same,"viability, T/C","second compound 1 µM, first compound 0.1 µM",88.9%
same,"viability, T/C","second compound 1 µM, first compound 0.316 µM",65.3%
same,"viability, T/C","second compound 1 µM, first compound 1 µM",37.6%
same,"viability, T/C","second compound 3.16 µM, first compound 0.00316 µM",90.3%
same,"viability, T/C","second compound 3.16 µM, first compound 0.01 µM",81.6%
same,"viability, T/C","second compound 3.16 µM, first compound 0.0316 µM",88%
same,"viability, T/C","second compound 3.16 µM, first compound 0.1 µM",63.6%
same,"viability, T/C","second compound 3.16 µM, first compound 0.316 µM",46%
same,"viability, T/C","second compound 3.16 µM, first compound 1 µM",33.3%
same,"viability, T/C","second compound 10 µM, first compound 0.00316 µM",55.9%
same,"viability, T/C","second compound 10 µM, first compound 0.01 µM",54%
same,"viability, T/C","second compound 10 µM, first compound 0.0316 µM",56.5%
same,"viability, T/C","second compound 10 µM, first compound 0.1 µM",44.7%
same,"viability, T/C","second compound 10 µM, first compound 0.316 µM",33.1%
same,"viability, T/C","second compound 10 µM, first compound 1 µM",4.02%
CCN1CCN(Cc2ccc(Nc3ncc(F)c(-c4cc(F)c5nc(C)n(C(C)C)c5c4)n3)nc2)CC1,"viability, T/C",compound 0.00316 µM,105% [middle of 4 runs]
same,"viability, T/C",compound 0.01 µM,97.8% [middle of 4 runs]
same,"viability, T/C",compound 0.0316 µM,99.3% [middle of 4 runs]
same,"viability, T/C",compound 0.1 µM,102% (2×) and 90.9% and 101%
same,"viability, T/C",compound 0.316 µM,95.1% [middle of 4 runs]
same,"viability, T/C",compound 1 µM,70% [middle of 4 runs]
same,IC50,curve of compound,> 1000 nM and 906 nM
